From US11339130B1 (Blade Therapeutics, Inc., priority 2016, dated 2022)
Read-outs that look alike come from different tables or passages of the source.

Tests used:
[1] = tested on: Calpain activity in SH-SY5Y cells (SBDP-150); assay: SH-SY5Y Spectrin western blot assay (SBDP-150 breakdown product, A23187-induced); format: cell-based; conditions: Homo sapiens; Column D; SH-SY5Y cells, A23187-induced SBDP-150; read-out: SH-SY5Y Spectrin IC50
[2] = biological target: T1, Human Calpain 1/NS1 (Homo sapiens, UniProt P07384); assay: Calpain inhibition continuous fluorescence (FRET) assay, Human Calpain 1/NS1; format: biochemical; conditions: read-out: Human Calpain 1/NS1 IC50
T1 sequence (P07384 1-714): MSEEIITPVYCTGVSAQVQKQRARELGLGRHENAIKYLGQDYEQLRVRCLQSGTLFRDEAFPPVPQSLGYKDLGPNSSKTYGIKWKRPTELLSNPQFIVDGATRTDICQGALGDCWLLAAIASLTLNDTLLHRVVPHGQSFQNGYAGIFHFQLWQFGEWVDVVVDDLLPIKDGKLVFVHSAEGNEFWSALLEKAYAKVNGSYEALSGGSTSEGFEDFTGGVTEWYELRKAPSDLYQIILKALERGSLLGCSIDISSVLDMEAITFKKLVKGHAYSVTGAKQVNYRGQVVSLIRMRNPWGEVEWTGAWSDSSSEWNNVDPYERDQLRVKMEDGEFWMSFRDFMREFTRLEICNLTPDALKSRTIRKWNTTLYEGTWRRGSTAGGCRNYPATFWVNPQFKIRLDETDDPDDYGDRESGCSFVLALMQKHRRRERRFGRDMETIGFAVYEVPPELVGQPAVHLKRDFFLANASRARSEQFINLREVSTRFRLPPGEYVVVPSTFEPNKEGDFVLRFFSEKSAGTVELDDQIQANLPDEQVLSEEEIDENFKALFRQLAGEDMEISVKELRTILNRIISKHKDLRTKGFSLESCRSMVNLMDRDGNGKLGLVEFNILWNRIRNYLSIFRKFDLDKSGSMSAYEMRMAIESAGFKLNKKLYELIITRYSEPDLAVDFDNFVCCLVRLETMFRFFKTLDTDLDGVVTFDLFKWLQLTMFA
T1 sequence (P04632 1-268 partner): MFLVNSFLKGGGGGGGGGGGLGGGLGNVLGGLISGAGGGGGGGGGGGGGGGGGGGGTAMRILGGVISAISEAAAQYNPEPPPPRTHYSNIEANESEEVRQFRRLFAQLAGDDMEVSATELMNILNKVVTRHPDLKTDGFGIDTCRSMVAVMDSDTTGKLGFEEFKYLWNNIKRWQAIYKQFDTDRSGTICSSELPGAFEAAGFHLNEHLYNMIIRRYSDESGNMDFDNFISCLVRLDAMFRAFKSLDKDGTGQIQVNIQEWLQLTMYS
How it was run: (§1)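 Continuous FRET read (ex 490/em 520 nm, 10 min) of calpain 1, 2 or 9 cleaving an internally quenched 5-FAM peptide, triggered by substrate with CaCl2 after enzyme–inhibitor incubation at ambient 25 °C, pH 7.5 Tris/NaCl/DTT buffer. IC50 from initial rates (1-5 min) via 4-parameter fit.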

[3] = biological target: T2, Human Calpain 9/NS1 (Homo sapiens, UniProt O14815); assay: Calpain inhibition continuous fluorescence (FRET) assay, Human Calpain 9/NS1; format: biochemical; conditions: read-out: Human Calpain 9/NS1 IC50
T2 sequence (O14815 1-690): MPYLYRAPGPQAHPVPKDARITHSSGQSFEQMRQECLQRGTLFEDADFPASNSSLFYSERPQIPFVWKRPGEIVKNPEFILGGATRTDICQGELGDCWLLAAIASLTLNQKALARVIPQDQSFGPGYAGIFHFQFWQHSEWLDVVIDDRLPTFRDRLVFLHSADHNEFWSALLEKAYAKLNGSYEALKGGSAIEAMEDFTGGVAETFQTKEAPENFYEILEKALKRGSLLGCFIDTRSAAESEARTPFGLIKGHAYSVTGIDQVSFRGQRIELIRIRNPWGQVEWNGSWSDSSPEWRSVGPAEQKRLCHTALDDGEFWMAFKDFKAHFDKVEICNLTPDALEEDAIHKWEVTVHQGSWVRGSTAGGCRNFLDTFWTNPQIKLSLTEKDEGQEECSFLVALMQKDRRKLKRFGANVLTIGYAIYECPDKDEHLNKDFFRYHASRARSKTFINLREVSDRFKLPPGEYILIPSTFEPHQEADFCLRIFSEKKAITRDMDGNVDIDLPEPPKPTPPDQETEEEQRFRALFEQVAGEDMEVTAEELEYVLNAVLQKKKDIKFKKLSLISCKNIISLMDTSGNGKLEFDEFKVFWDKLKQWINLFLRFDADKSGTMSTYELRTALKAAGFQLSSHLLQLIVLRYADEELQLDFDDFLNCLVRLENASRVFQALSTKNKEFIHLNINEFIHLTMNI
T2 sequence (P04632 1-268 partner): T1 sequence (P04632 1-268 partner)
How it was run: as §1

[4] = biological target: T3, Human Calpain 2/NS1 (Homo sapiens, UniProt P17655); assay: Calpain inhibition continuous fluorescence (FRET) assay, Human Calpain 2/NS1; format: biochemical; conditions: read-out: Human Calpain 2/NS1 IC50
T3 sequence (P17655 1-700): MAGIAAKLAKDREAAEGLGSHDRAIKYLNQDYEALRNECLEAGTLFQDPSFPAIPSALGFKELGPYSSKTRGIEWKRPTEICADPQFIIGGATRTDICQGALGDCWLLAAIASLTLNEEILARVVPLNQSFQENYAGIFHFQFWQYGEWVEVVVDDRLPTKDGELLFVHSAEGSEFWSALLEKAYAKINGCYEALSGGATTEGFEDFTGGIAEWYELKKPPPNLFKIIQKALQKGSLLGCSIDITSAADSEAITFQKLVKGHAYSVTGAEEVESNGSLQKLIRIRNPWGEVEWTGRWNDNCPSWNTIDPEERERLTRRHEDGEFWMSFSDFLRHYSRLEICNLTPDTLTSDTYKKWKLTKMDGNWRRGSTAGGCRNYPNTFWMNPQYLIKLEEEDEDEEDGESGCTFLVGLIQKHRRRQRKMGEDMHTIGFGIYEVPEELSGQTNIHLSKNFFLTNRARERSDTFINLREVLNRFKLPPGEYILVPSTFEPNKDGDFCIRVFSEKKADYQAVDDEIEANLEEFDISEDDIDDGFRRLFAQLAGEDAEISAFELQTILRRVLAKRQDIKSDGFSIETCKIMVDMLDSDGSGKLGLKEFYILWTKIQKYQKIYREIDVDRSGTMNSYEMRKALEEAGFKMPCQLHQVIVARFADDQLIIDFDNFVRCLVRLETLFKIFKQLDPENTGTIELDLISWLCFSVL
T3 sequence (P04632 1-268 partner): T1 sequence (P04632 1-268 partner)
How it was run: as §1

[5] = tested on: Calpain activity in SH-SY5Y cells; assay: SH-SY5Y + AMC fluorescence assay (Suc-LLVY-AMC substrate); format: cell-based; conditions: read-out: SH-SY5Y + AMC IC50

| IC50 [1] [µM] | IC50 ([2]; Column A) [µM] | IC50 ([3]; Column C) [µM] | IC50 ([4]; Column B) [µM] | IC50 [5] [µM] | IC50 [2] [µM] | IC50 [3] [µM] | IC50 [4] [µM] | IC50 ([5]; Column E) [µM] | Compound |
| --- | --- | --- | --- | --- | --- | --- | --- | --- | --- |
|  |  |  |  | 10 to 25 | < 3 | < 3 | < 3 |  | Cc1nc(-c2ccccc2)c(C(=O)N[C@@H](Cc2ccc(OS(=O)(=O)C(F)(F)F)cc2)C(=O)C(N)=O)o1 [Compound 355] |
|  |  |  |  | 10 to 25 | < 3 | < 3 | < 3 |  | Cc1ccccc1-c1nc(C(F)(F)F)oc1C(=O)NC(Cc1ccccc1)C(=O)C(N)=O (stereo not shown) [Compound 359, N-(4-amino-3,4-dioxo-1-phenylbutan-2-yl)-4-(o-tolyl)-2-(trifluoromethyl)oxazole-5-carboxamide] |
|  |  |  |  | > 25 | < 3 | < 3 | < 3 |  | NC(=O)C(=O)C(Cc1ccccc1)NC(=O)c1cn(C2CC2)nc1-c1ccc(C(F)(F)F)nc1 (stereo not shown) [Compound 414, N-(4-amino-3,4-dioxo-1-phenylbutan-2-yl)-1-cyclopropyl-3-(6-(trifluoromethyl)pyridin-3-yl)-1H-pyrazole-4-carboxamide] |
|  |  |  |  | > 25 | > 10 | > 10 | > 10 |  | Cc1cc(C(=O)NC(Cc2ccccc2)C(O)C(N)=O)n(-c2ccnc(Cl)n2)n1 (stereo not shown) [Compound 434, N-(4-amino-3-hydroxy-4-oxo-1-phenylbutan-2-yl)-1-(2-chloropyrimidin-4-yl)-3-methyl-1H-pyrazole-5-carboxamide] |
|  |  |  |  | 10 to 25 | < 3 | < 3 | < 3 |  | Cn1cc(C(=O)NC(Cc2ccccc2)C(=O)C(N)=O)c(-c2ccsc2)n1 (stereo not shown) [Compound 503, N-(4-amino-3,4-dioxo-1-phenylbutan-2-yl)-1-methyl-3-(thiophen-3-yl)-1H-pyrazole-4-carboxamide] |
|  |  |  |  | > 25 | > 10 | > 10 | > 10 |  | Cn1cc(C(=O)NC(C=O)c2ccccc2C(F)(F)F)c(-c2ccccc2F)n1 (stereo not shown) [Compound 519, 3-(2-Fluorophenyl)-1-METHYL-N-(2-oxo-1-(2-(trifluoromethyl)phenyl)ethyl)-1H-pyrazole-4-carboxamide] |

Further lines, the compound ahead of its results:

| Compound | IC50 [1] [µM] | IC50 ([2]; Column A) [µM] | IC50 ([3]; Column C) [µM] | IC50 ([4]; Column B) [µM] | IC50 [5] [µM] | IC50 [2] [µM] | IC50 [3] [µM] | IC50 [4] [µM] | IC50 ([5]; Column E) [µM] |
| --- | --- | --- | --- | --- | --- | --- | --- | --- | --- |
| O=C[C@H](Cc1ccccc1)NC(=O)c1ccnn1-c1ccccc1 [Compound 2, (S)—N-(1-oxo-3-phenylpropan-2-yl)-1-phenyl-1H-pyrazole-5-carboxamide] | 10 to 25 | < 3 | < 3 | < 3 |  |  |  |  |  |
| NC(=O)C(=O)[C@H](Cc1ccccc1)NC(=O)c1conc1-c1cccc(F)c1 [Compound 323, (S)—N-(4-amino-3,4-dioxo-1-phenylbutan-2-yl)-3-(3-fluorophenyl)isoxazole-4-carboxamide] |  |  |  |  | > 25 | < 3 | < 3 | < 3 |  |
| COCCOCCNC(=O)C(=O)[C@H](Cc1ccccc1)NC(=O)c1cn(C)nc1-c1ccccc1 [Compound 335, (S)—N-(4-((2-(2-methoxyethoxy)ethyl)amino)-3,4-dioxo-1-phenylbutan-2-yl)-1-methyl-3-phenyl-1H-pyrazole-4-carboxamide] |  |  |  |  | < 10 | < 3 | < 3 | < 3 |  |
| CNC(=O)CNC(=O)C(=O)[C@H](Cc1ccccc1)NC(=O)c1cn(C)nc1-c1ccccc1 [Compound 336, (S)-1-methyl-N-(4-((2-(methylamino)-2-oxoethyl)amino)-3,4-dioxo-1-phenylbutan-2-yl)-3-phenyl-1H-pyrazole-4-carboxamide] |  |  |  |  | < 10 | < 3 | < 3 | < 3 |  |
| Cc1cccc(-c2nsnc2C(=O)NC(Cc2ccccc2)C(=O)C(N)=O)c1F (stereo not shown) [Compound 368, N-(4-amino-3,4-dioxo-1-phenylbutan-2-yl)-4-(2-fluoro-3-methylphenyl)-1,2,5-thiadiazole-3-carboxamide] |  |  |  |  | < 10 | < 3 | < 3 | < 3 |  |
| NC(=O)C(=O)C(Cc1ccccc1)NC(=O)[C@@H]1CC2(CC2)CN1c1ccccc1 (stereo partly drawn) [Compound 411, (6S)—N-(4-amino-3,4-dioxo-1-phenylbutan-2-yl)-5-phenyl-5-azaspiro[2.4]heptane-6-carboxamide] |  |  |  |  | 10 to 25 | < 3 | < 3 | < 3 |  |
| O=C(NC1CC1)C(=O)C(Cc1ccccc1)NC(=O)c1cc(Cl)nn1-c1ncccn1 (stereo not shown) [Compound 457, 3-chloro-N-(4-(cyclopropylamino)-3,4-dioxo-1-phenylbutan-2-yl)-1-(pyrimidin-2-yl)-1H-pyrazole-5-carboxamide] |  |  |  |  | < 10 | < 3 | 3 to 10 | < 3 |  |
| Cc1nc(C(=O)NC(Cc2ccccc2)C(=O)C(N)=O)c(-c2ccccc2)o1 (stereo not shown) [Compound 494, N-(4-amino-3,4-dioxo-1-phenylbutan-2-yl)-2-methyl-5-phenyloxazole-4-carboxamide] |  |  |  |  | > 25 | < 3 | < 3 | < 3 |  |
| COc1ccccc1-c1nn(C)cc1C(=O)NC(Cc1ccccc1)C(=O)C(N)=O (stereo not shown) [Compound 511, N-(4-amino-3,4-dioxo-1-phenylbutan-2-yl)-3-(2-methoxyphenyl)-1-methyl-1H-pyrazole-4-carboxamide] |  |  |  |  | > 25 | < 3 | < 3 | < 3 |  |
| (S)—N-(4-amino-3,4-dioxo-1-phenylbutan-2-yl)-1-methyl-3-(pyrimidin-4-yl)-1H-pyrazole-4-carboxamide [Compound 193] |  | 3 to 10 | 3 to 10 | < 3 |  |  |  |  | > 25 |
